Earlier results on one compound are cited in US20240180159A1, “NEW OIL SUSPENSION CONCENTRATE COMPOSITION” (SYNGENTA CROP PROTECTION AG, priority 2021, published 2024).

For this series the following is noted: basic pH 8-14 conditions.

For `CN1COCN(Cc2cnc(Cl)s2)/C1=N\[N+](=O)[O-]` [thiamethoxam], the susceptibility to hydrolysis entry is “susceptible to hydrolysis”.
